The values that follow come from US6673746B1, “Virulence enhancement of bioherbicides” (priority 1999, dated 2004).

Each structure is given as a SMILES string.

One assay concerns Fusarium oxysporum. In kind it is cell-based. The note with it: 0.5 ml of 1000 :g/ml analog in well, minimal medium, 28° C. On the procedure: Mutant selection. The inhibitory effect of valine and valine analogs was tested against the selected Fusarium spp., using a well zone-diffusion assay on a minimal medium. Seven available valine analogs were tested. The gradient plates were prepared as follows: Minimal media was poured into Petri dishes, then a disk (diameter=10 mm) of the solidified medium was cut out (with number 5 cutter) from the center of the plate and filled with the sterile solution of an analog (0.5 ml of a 1000 :g/ml of analog in sterile distilled H2O). The solution was gradually applied to the well and the plates were allowed to dry and form a gradient under the hood for 24 hours. A Fusarium oxysporum microconidia suspension of 10^7 sp/ml was obtained by washing a 10-14 day fungal culture grown on minimal medium (with nitrate) with 10 ml of sterile H2O. Five hundred :1 of the spore suspension was thoroughly spread across the plate with a glass rod. These plates were then incubated at 28° C.

The next assay deals with Cannabis sativa. In kind it is in vivo. On the procedure:
(§1) Amino Acid Toxicity Tests on Plants. Germinated seeds of Cannabis sativa, Papaver somniferum, and Nicotiana tobaccum were transferred to minimal medium (3% Sucrose (w/v), 1.7 g/l Yeast extract base without amino acids (Difco Laboratories, Detroit, Mich.), 16 g/l Ultrapure Agar (USB, Cleveland, Ohio)) supplemented with increasing concentrations of amino acids. Each amino acid was supplemented at eight concentrations (0 mM, 0.01 mM, 0.1 mM, 0.5 mM, 1 mM, 2 mM, 3 mM, 4 mM), and each treatment was replicated six times. Five pregerminated seeds were placed on each plate, per replication. Plates were incubated at ambient temperature with 12-hour diurnal period for two weeks. The fresh weight per seedling was calculated at the end of the experiment.

The test system of a further assay is Papaver somniferum. Kind of assay: Amino acid toxicity test on plants, Papaver somniferum seedlings. The note with it: for reduction of fresh weight of P. somniferum seedlings: 1 mM; for inhibition of P. somniferum seedling growth compared with the other amino acids: in vivo; for reduction of fresh weight of P. somniferum seedlings vs control: 0.1 mM. Type of assay: in vivo. On the procedure: as §1

For another assay, the system named is Nicotiana tobaccum. Kind of assay: Amino acid toxicity test on plants, tobacco seedlings. In kind it is in vivo. The note with it: 0.1 mM on agar media. On the procedure: as §1

`CCC(C)C(=O)C(=O)O` (racemic) [DL-α-keto-β-methyl valeric acid]: the “inhibitory effect on strains of F. oxysporum” value (from here on “inhibitory effect on strains”) in the assay on Fusarium oxysporum is recorded as “not inhibitory”.

With `CC[C@H](N)C(=O)O` [L-amino-n- butyric acid], in the assay on Fusarium oxysporum, the “inhibitory effect on strains” value is given as “not inhibitory”.

On to `CC(C)[C@H](N)C(N)=O` [L-valine amide], for which the “inhibitory effect on strains” value in the assay with Fusarium oxysporum is recorded as “not inhibitory”.

As to `CC(C)[C@H](N)C(=O)NO` [L-valine hydroxamate], the “inhibitory effect on strains” value in the assay with Fusarium oxysporum is recorded as “not inhibitory”.

With `CC(C)[C@H](N)CO` [L-valinol], the “inhibitory effect on strains” value in the assay with Fusarium oxysporum is recorded as “not inhibitory”.

In the case of `CCC[C@H](N)C(=O)O` [Norvaline], the “inhibitory effect on strains” value in the assay with Fusarium oxysporum was “inhibitory”.

As for `CC(C)(S)[C@@H](N)C(=O)O` [penicillamine], the “inhibitory effect on strains” value with Fusarium oxysporum is listed as “inhibitory”.

With `N[C@@H](Cc1ccccc1)C(=O)O` [phenylalanine], the “reduction of fresh weight of C. sativa seedlings vs control” value in the assay on Cannabis sativa (0.1 mM in minimal medium) is 40-45%. In the assay with Papaver somniferum, the “reduction of fresh weight of P. somniferum seedlings” value is given as 20% and the “inhibition of P. somniferum seedling growth compared with the other amino acids” value is “less inhibitory”. The “reduction of fresh weight of tobacco seedlings vs control” value in the assay with Nicotiana tobaccum is on record as 20%.

Take `N[C@@H](Cc1c[nH]c2ccccc12)C(=O)O` [tryptophan]: in the assay on Papaver somniferum, the “reduction of fresh weight of P. somniferum seedlings” value came out at 20% and the “inhibition of P. somniferum seedling growth compared with the other amino acids” value was “less inhibitory”. Also, the “reduction of fresh weight of tobacco seedlings vs control” value with Nicotiana tobaccum came to 20%.

With `N[C@@H](Cc1ccc(O)cc1)C(=O)O` [tyrosine], the “reduction of fresh weight of C. sativa seedlings” value with Cannabis sativa (1 mM in minimal medium) is 25-30%. The “inhibition of C. sativa seedlings compared with the other amino acids” value in the assay on Cannabis sativa (in vivo) is on record as “less inhibitory than other amino acids tested”. Further, in the assay with Papaver somniferum, the “reduction of fresh weight of P. somniferum seedlings vs control” value is listed as “about 40%”. Moreover, the “reduction of fresh weight of tobacco seedlings vs control” value in the assay on Nicotiana tobaccum was 50-60%.

As to `CC(C)[C@H](N)C(=O)O` [valine], the “reduction of fresh weight of C. sativa seedlings vs control” value with Cannabis sativa (0.1 mM in minimal medium) worked out at 50%. Moreover, the “fresh weight of C. sativa seedlings relative to control seedlings” value with Cannabis sativa (0.1 mM in minimal medium, two weeks) is on record as “half of the control”. For the same compound, the “concentration at which inhibitory effects on growth of C. sativa seedlings start” value in the assay on Cannabis sativa (minimal media with nitrate) was 0.1 mM. In the assay on Papaver somniferum, the “reduction of fresh weight of P. somniferum seedlings vs control” value is “about 60%”.
